# From patent publication US10472635B2, “Methods of treating brain edema” (priority 2015, dated 2019)
# Read-outs that look alike come from different tables or passages of the source.
# Legend:
# KCC2 = biological target: T1, KCC2 (Homo sapiens, UniProt Q9H2X9); settings: cited from earlier work
# T1 sequence (Q9H2X9 1-1139): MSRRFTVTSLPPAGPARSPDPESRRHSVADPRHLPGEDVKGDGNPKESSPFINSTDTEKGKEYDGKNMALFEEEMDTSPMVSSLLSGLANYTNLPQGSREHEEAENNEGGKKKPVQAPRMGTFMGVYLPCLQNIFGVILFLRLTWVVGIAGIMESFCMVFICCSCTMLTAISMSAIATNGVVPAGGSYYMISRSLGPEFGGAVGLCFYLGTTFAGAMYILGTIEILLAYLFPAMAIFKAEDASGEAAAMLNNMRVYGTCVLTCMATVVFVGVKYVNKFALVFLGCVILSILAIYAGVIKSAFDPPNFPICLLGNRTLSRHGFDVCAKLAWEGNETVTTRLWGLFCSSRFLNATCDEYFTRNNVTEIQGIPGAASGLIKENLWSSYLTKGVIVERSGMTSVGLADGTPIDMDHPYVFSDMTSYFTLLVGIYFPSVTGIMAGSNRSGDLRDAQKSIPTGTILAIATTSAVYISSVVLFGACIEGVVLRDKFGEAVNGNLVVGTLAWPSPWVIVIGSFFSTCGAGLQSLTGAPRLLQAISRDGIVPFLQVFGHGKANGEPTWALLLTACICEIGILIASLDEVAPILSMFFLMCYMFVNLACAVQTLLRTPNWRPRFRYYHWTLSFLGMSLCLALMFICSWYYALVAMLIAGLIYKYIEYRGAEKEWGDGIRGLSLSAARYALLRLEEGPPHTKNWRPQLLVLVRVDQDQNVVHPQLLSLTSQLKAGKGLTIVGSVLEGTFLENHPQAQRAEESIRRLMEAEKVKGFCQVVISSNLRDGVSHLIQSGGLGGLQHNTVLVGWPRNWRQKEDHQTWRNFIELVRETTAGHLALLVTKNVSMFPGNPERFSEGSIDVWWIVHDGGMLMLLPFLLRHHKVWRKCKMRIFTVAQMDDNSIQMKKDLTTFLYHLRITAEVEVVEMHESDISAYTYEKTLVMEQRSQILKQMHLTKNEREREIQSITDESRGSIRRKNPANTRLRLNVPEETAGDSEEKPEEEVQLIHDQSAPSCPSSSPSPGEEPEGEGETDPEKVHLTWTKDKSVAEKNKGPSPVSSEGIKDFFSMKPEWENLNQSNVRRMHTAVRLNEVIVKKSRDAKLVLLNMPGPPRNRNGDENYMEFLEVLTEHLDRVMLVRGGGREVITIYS
# NKCC1 = biological target: T2, NKCC1 (Homo sapiens, UniProt P55011); settings: cited from earlier work
# T2 sequence (P55011 1-1212): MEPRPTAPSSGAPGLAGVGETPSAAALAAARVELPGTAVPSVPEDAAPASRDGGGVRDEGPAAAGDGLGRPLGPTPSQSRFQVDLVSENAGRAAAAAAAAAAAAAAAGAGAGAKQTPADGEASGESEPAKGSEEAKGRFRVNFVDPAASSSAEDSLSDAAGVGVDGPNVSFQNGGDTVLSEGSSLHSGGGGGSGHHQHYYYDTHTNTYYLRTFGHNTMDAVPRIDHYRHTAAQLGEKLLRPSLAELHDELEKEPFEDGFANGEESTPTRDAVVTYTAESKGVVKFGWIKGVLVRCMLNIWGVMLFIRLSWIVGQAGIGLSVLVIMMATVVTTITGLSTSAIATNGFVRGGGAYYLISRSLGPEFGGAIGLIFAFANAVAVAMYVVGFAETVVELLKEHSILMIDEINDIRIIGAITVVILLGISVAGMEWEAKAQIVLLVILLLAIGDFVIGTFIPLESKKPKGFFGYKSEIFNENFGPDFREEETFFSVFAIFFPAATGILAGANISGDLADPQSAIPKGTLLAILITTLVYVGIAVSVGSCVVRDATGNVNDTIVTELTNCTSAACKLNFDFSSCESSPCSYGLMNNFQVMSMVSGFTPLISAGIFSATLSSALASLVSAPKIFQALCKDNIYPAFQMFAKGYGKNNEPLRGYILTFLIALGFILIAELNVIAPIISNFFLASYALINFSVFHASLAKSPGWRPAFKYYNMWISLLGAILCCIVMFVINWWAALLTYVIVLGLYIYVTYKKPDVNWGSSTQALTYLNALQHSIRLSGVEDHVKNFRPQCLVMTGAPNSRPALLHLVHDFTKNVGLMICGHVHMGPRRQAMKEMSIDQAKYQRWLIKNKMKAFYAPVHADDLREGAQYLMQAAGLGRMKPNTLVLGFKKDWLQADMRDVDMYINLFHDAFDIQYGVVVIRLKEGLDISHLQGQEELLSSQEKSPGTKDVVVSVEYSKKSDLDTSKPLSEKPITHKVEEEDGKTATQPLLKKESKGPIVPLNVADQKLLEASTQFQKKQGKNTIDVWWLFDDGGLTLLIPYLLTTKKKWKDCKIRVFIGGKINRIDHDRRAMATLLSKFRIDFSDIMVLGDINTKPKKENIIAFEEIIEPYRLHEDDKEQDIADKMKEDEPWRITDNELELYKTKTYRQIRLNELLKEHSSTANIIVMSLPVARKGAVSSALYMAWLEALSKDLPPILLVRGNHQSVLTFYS
# Pannexins, Connexins = settings: cited from earlier work
# Maxi-Anion Channel = settings: cited from earlier work
# [1] = test system: cortical neurons in brain slices; assay: Neuronal swelling imaging assay in brain slices (cross sectional area of CoroNa-stained soma, two-photon); type: cell-based, rat; settings: for magnitude of neuronal swelling: veratridine-induced, blockers present, without vs with pre-applied picrotoxin (100 μM)
# rat hippocampal slices = assay: LDH release cell death assay in hippocampal slices; type: cell-based; settings: for effect on veratridine-induced cell death (LDH release): 50 μM veratridine
# [2] = test system: voltage-dependent Cl^− current in layer 4 cortical neurons; assay: Whole-cell voltage clamp of depolarization-activated Cl- current; type: cell-based, rat; settings: depolarization to −20 mV or greater; cocktail of channel blockers; GlyH-101 by dialysis
# Method: Electrophysiology: Whole-cell recordings were performed in the presence of antagonists of GABAA (10 μM picrotoxin), AMPA/kainite (10 μM 6-cyano-7-nitoquinoxaline-2,3-dione—CNQX), and NMDA (2R-amino-5-phosphonovaleric acid—APV) receptors. 60 μM cadmium, 50 μM nickel and 100 μM 4AP (4-aminopyridine) were used to block voltage-gated calcium channels and A-type potassium channels. Whole-cell voltage-clamp recordings from cortical neurons were carried out at room temperature while the recording chamber was perfused with ACSF at 1-1.5 ml min-1. Recordings were made using a MultiClamp 700B amplifier controlled by Clampex 10.2 via a Digidata 1440A data acquisition system with 3-5M ? glass electrodes. The pipette solution containing (in m ? ): 108 CsCl, 8 TEA-Cl, 8 NaGluc, 1 CsEGTA, 4 K-ATP, 0.3 Na-GTP, 10 Hepes, 2MgCl2 (pH 7.2 with CsOH, 286 mosmol 1-1). Normal ACSF contained (in mM): 126 NaCl, 26 NaHCO3, 10 glucose, 2 MgCl2, 1.25 NaH2PO4, 2.5 KCl, 2.0 CaCl2 (pH 7.25, 310 mosmol 1-1). NaCl was replaced with 126 mM Na-isethionate in the low-chloride ACSF. Recordings where the series resistance varied more than 10% were rejected. Data were analyzed with Clampfit 10.0.
# The opening of Na^+ permeable channels causes both [Na^+]i accumulation and neuronal depolarization. […] However progressive accumulation of extracellular K^+ could lead to further depolarization of the membrane. […]
# CaCC = settings: cited from earlier work
# [3] = test system: neuronal [Na^+]i in brain slices; assay: Neuronal [Na+]i by CoroNa Green fluorescence / two-photon FLIM; type: cell-based, rat
# VRAC = settings: cited from earlier work
# CLC-2 = CLC-2 (Homo sapiens, UniProt P51788); settings: cited from earlier work
# [4] = 22-24 °C, antagonist bath applied and in puffing pipette, DIDS 250 μM, NPPB 200 μM, TTX 1 μM
# [5] = pressure ejection, Cd2+, CNQX, picrotoxin present, d-APV with veratridine, TTX with NMDA
# CLC-2, sequence (P51788 whole entry): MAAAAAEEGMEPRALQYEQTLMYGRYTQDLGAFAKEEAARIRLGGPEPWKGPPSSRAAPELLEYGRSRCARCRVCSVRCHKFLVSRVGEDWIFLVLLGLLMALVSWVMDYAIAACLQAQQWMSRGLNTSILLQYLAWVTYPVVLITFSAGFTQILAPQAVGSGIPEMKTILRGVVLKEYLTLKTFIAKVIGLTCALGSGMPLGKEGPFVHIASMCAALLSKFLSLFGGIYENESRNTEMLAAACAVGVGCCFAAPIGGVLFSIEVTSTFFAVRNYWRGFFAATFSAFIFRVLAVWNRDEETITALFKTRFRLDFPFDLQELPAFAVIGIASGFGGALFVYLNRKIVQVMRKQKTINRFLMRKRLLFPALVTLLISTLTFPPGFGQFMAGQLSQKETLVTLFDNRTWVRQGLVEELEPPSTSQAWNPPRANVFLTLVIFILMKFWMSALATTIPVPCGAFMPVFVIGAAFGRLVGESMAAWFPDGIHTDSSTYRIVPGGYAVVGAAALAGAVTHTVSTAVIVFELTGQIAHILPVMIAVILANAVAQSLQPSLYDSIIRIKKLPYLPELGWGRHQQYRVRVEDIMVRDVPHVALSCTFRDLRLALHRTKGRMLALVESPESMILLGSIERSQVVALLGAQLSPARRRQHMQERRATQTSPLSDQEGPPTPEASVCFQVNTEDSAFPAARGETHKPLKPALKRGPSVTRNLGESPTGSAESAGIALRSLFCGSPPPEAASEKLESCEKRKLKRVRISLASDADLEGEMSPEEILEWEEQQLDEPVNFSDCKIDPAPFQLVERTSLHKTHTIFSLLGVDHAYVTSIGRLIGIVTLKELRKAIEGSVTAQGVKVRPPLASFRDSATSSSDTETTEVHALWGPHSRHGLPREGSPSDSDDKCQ
compound,measurement,setting,value
"CCCCNc1cc(C(=O)O)cc(S(N)(=O)=O)c1Oc1ccccc1 [Bumetanide, bumetanide]",Ki,KCC2,25 to 50 µM
same,Ki,NKCC1,~0.1 µM
"CC1(C)[C@@H](OC(=O)CCC(=O)O)CC[C@]2(C)[C@H]3C(=O)C=C4[C@@H]5C[C@@](C)(C(=O)O)CC[C@]5(C)CC[C@@]4(C)[C@]3(C)CC[C@@H]12 [CBX, carbenoxelone]",concentration (antagonist sensitivity of channel/transporter),"Pannexins, Connexins",100 µM
[Gd+3] [Gd^3+],concentration (antagonist sensitivity of channel/transporter),Maxi-Anion Channel,30 to 50 µM
O=C(CNc1ccc2ccccc2c1)N/N=C/c1cc(Br)c(O)c(Br)c1O [GlyH-101],effect on veratridine-induced neuronal swelling,[1]; [4],profoundly inhibited
same,effect on veratridine-induced cell death (LDH release),rat hippocampal slices,profoundly inhibited
same,effect on non-inactivating Cl- current elicited by depolarization,[2],inhibit
"O=C(O)c1cccnc1Nc1cccc(C(F)(F)F)c1 [NFA, niflumic acid]",concentration (antagonist sensitivity of channel/transporter),CaCC,50 to 100 µM
"CN[C@H](CC(=O)O)C(=O)O [NMDA, N-Methyl-D-aspartic acid]",neuronal cross sectional area after NMDAR activation,"[1]; extracellular Ca2+ free solution (0 mM Ca2+, 2 mM EGTA), TTX, Cd2+, CNQX, picrotoxin present",161.60±10.55 % of baseline
same,neuronal cross sectional area after NMDAR activation,"[1]; extracellular Na+ replaced with NMDG (152 mM to 26 mM), normal Ca2+",86.7 % of baseline
same,change in neuronal cell volume on application,[1]; [5],increase in neuronal cell volume
same,change in neuronal [Na+]i on application,[3]; [5],significant increase
same,LDH release (cell death) on application,"rat hippocampal slices; 15 min application, LDH after 90 min, veratridine 50 μM, NMDA 100 μM in 0 mM Ca2+, 2 mM EGTA, CNQX, picrotoxin, Cd2+ present",rapid and significant increase
O=C(O)c1cc([N+](=O)[O-])ccc1NCCCc1ccccc1 [NPPB],concentration (antagonist sensitivity of channel/transporter),CaCC,100 µM
same,concentration (antagonist sensitivity of channel/transporter),VRAC,40 to 100 µM
same,effect on veratridine-induced neuronal swelling,[1]; [4],no protection
same,effect on veratridine-induced cell death (LDH release),rat hippocampal slices,no effect
same,"effect on NMDA-induced cell death (LDH release), Ca2+-independent",rat hippocampal slices; NMDA in Ca2+ free extracellular solution,blocked by DIDS but not NPPB
same,concentration (antagonist sensitivity of channel/transporter),Maxi-Anion Channel,100 µM
"NC1=N[C@H](O)[C@H]2[C@H]3O[C@]4(O)O[C@@H]([C@@H](O)[C@@]2(N1)[C@@H]4O)[C@]3(O)CO [TTX, Tetrodotoxin]",effect on veratridine-induced neuronal swelling,[1],blocked
same,effect on veratridine-induced [Na+]i increase,[3],blocked
[Zn] [Zinc],concentration (antagonist sensitivity of channel/transporter),CLC-2,100 µM
"N[C@H](CCCP(=O)(O)O)C(=O)O [d-APV, 2R-amino-5-phosphonovaleric acid]",effect on NMDA-induced neuronal swelling,"[1]; DIDS 250 μM, 500 μM, 1 mM, d-APV 100 μM",blocked
same,effect on NMDA-induced [Na+]i increase,"[3]; CoroNa signal, d-APV 100 μM",blocked
COc1ccc(C(=O)O[C@H]2CC[C@@]3(C)[C@@H]4CC[C@H]5[C@]6(O)C[C@H](O)[C@@]7(O)[C@@H](CN8C[C@@H](C)CC[C@H]8[C@@]7(C)O)[C@]6(O)C[C@@]53O[C@]24O)cc1OC [veratridine],magnitude of neuronal swelling,[1],161.7%
same,"[Na+]i (calibrated value, CoroNa FLIM)",[3]; throughout veratridine application,approximately 94.46±2.14 mM
picrotoxin,magnitude of neuronal swelling,[1],146.9%
